Source: patent US8158621B2, “Methods of treating or preventing autoimmune diseases with 2,4-pyrimidinediamine compounds” (Rigel Pharmaceuticals, Inc., priority 2002, dated 2012)
Where “and” joins values, the source holds several entries; their conditions need not be identical. Identical values can stand only once.

Assays:
[1] = system: cultured human mast cells (CHMC); assay: CHMC low cell density IgE activation: tryptase assay; type: cell-based
Method in brief: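 CHMC resuspended in pre-warmed MT buffer at 1000-1500 cells/well (donor-dependent) and preincubated 1 hr at 37° C, then stimulated with anti-IgE for 30 min at 37° C; unstimulated wells got MT alone. Supernatant tryptase activity read with tryptase substrate after 30 min at room temperature.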

[2] = system: cultured human mast cells (CHMC); assay: CHMC low cell density ionomycin activation: tryptase assay; type: cell-based
[3] = system: bone marrow derived mast cells (BMMC); assay: BMMC high cell density IgE activation: hexosaminidase; type: cell-based, mouse; details: high cell density; read-out: BMMC anti-IgE Hexos.
[4] = system: bone marrow derived mast cells (BMMC); assay: BMMC high cell density IgE activation: TNFalpha; type: cell-based, mouse; details: high cell density; read-out: BMMC anti-IgE TNF-alpha
Description: (§1) After sensitizing, cells are counted, pelleted (1000 rpm, 5-10 minutes), and resuspended at 1-3×10^6 cells/ml in MT buffer. Add 100 ul of cell suspension to each well and 100 ul of compound dilutions. The final vehicle concentration is 0.5% DMSO. Incubate at 37° C. (5% CO2) for 1 hour. After 1 hour of compound treatment, stimulate cells with 6× stimulus (60 ng/ml DNP-BSA). Mix wells with the cells and allow plates to incubate at 37° C. (5% CO2) for one hour. After 1 hour incubation, pellet cells (10 minutes, 1000 RPM) and collect 200 ul per well of the supernatant, being careful not to disturb pellet, and transfer to a clean tube or 96-well plate. Place the supernatant plate on ice. During the 4-5 hour step (see next) perform the hexosiminidase assay. Resuspend cell pellet in 240 ul WEI-conditioned media containing 0.5% DMSO and corresponding concentration of compound. Incubate BMMC cells for 4-5 hours at 37° C. (5% CO2). After incubation, pellet cells (1000 RPM, 10 minutes) and collect 225 ul per well and place in −80° C. until ready to perform ELISAS. ELISAS are performed on appropriately diluted samples (determined empirically for each donor cell population so that the sample measurement falls within the standard curve) following the supplier's instructions.

[5] = system: bone marrow derived mast cells (BMMC); assay: BMMC high cell density IgE activation: IL-6; type: cell-based, mouse; details: high cell density; read-out: BMMC anti-IgE IL-6
Description: as §1

[6] = molecular target: T1, Syk kinase (Homo sapiens, UniProt P43405); assay: Syk kinase biochemical fluorescence polarization assay; details: isolated Syk kinase, fluorescence polarization, 4 uM ATP
T1 construct: purchased Upstate, Lake Placid NY

[7] = system: Human Jurkat T-cells (clone N); assay: Jurkat T-cell activation (anti-TCR, CD69 upregulation); type: cell-based
Method in brief: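 Jurkat cells in RPMI + 5% FBS preincubated with compound 1 h at 37 °C, then stimulated with anti-TCR C305 at 500 ng/ml for 20 h. CD69 surface expression stained with anti-CD69-APC and read by flow cytometry; IC50 versus solvent-only control.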

[8] = system: differentiated human macrophages; assay: Macrophage activation, IgG stimulation: TNF; type: cell-based; details: stimulus (IgG or LPS) not given; read-out: Monocytes/Macrophage TNF IC50
Description: Purity was assessed by measuring the percentage of CD14+ cells by flow cytometry.
A negative control consisting of the F(ab′)2 fragment was also coated to assess background stimulation. Unbound antibody was washed away 2× with 200 ul PBS. […] The cells were incubated for 16 hr in a 37° C. incubator, and supernatants were collected for Luminex analysis for IL-6 and TNFα, essentially as described for the primary T-cells, above.

[9] = system: differentiated human macrophages; assay: Macrophage activation, IgG stimulation: IL-6; type: cell-based; details: stimulus (IgG or LPS) not given; read-out: Monocytes/Macrophage IL-6 IC50
Description: CD 14+ monocytes were purified from PBMC (Allcells # PB002) using the Monocyte Isolation kit (Miltenyi biotec #130-045-501) as per the manufacturer's instructions. Purity was assessed by measuring the percentage of CD14+ cells by flow cytometry. Typically >90% purity is achieved. The purified CD14+ cells are then plated out (6×10^6 cells/150 cm TC dish in 15 mls media) in Macrophage-SFM (Gibco #12065-074) with 100 ng/ml of M-CSF (Pepro Tech #300-25) and allowed to differentiate for five days. At the end of that period, cell morphology and cell surface markers (CD14, HLA-DR, B7.1, B7.2, CD64, CD32, and CD16) reflected the presence of mature differentiated macrophage.
A negative control consisting of the F(ab′)2 fragment was also coated to assess background stimulation. Unbound antibody was washed away 2× with 200 ul PBS. 20 ul of 5× compound was added to each well, followed by the addition 15 k cells of differentiated macrophage in 80 uL that had been scraped off of the plates. The cells were incubated for 16 hr in a 37° C. incubator, and supernatants were collected for Luminex analysis for IL-6 and TNFα, essentially as described for the primary T-cells, above.
Varied concentrations of compound were compared to solvent only to determine the IC50 of each compound for each cytokine Representative IC50 s for 2,4-pyrimidinediamine compounds of the invention are shown in Table 11.

[10] = system: cultured human mast cells (CHMC); assay: CHMC low cell density IgE activation: LTC4 assay; type: cell-based; details: anti-IgE activation, LTC4 release
Description: Pellet CHMC cells (980 rpm, 10 min) and resuspend in pre-warmed MT. Add 65 ul of cells to each 96-well plate. Depending on the degranulation activity for each particular CHMC donor, load 1000-1500 cells/well. Mix four times followed by a 1 hr incubation at 37° C. […] Stimulate cells by adding 25 ul of 6× anti-IgE solution to the appropriate plates. Add 25 ul MT to un-stimulated control wells. Mix twice following addition of the anti-IgE. Incubate at 37° C. for 30 minutes. […] Spin plates at 1000 rpm for 10 min to pellet cells. Transfer 25 ul of supernatant to a 96-well black bottom plate and add 100 ul of freshly diluted tryptase substrate solution to each well. Incubate plates at room temperature for 30 min.
Leukotriene C4 (LTC4) is also quantified using an ELISA kit on appropriately diluted supernatant samples (determined empirically for each donor cell population so that the sample measurement falls within the standard curve) following the supplier's instructions.

[11] = system: cultured human mast cells (CHMC); assay: CHMC high cell density IgE activation: hexos; type: cell-based
Description: (§2) After sensitizing, cells are counted, pelleted (1000 rpm, 5-10 minutes), and resuspended at 1-2 ×10^6 cells/ml in MT buffer. Add 100 ul of cell suspension to each well and 100 ul of compound dilutions. The final vehicle concentration is 0.5% DMSO. Incubate at 37° C. (5% CO2) for 1 hour. After 1 hour of compound treatment, stimulate cells with 6× anti-IgE. Mix wells with the cells and allow plates to incubate at 37° C. (5% CO2) for one hour. After 1 hour incubation, pellet cells (10 minutes, 1000 RPM) and collect 200 ul per well of the supernatant, being careful not to disturb pellet. Place the supernatant plate on ice. During the 7-hour step (see next) perform tryptase assay on supernatant that had been diluted 1:500. Resuspend cell pellet in 240 ul of CM media containing 0.5% DMSO and corresponding concentration of compound. Incubate CHMC cells for 7 hours at 37° C. (5% CO2). After incubation, pellet cells (1000 RPM, 10 minutes) and collect 225 ul per well and place in −80° C. until ready to perform ELISAS. ELISAS are performed on appropriately diluted samples (determined empirically for each donor cell population so that the sample measurement falls within the standard curve) following the supplier's instructions.
Add 50 uL of BMMC cell supernatant (see above) to the hexoseaminidase substrate, place at 37° C. for 30 minutes and read the plate at 5, 10, 15, and 30 minutes on a spectrophotometer.

[12] = system: cultured human mast cells (CHMC); assay: CHMC high cell density IgE activation: tryptase; type: cell-based
Description: as §2

[13] = system: cultured human mast cells (CHMC); assay: CHMC high cell density IgE activation: histamine; type: cell-based
Description: as §2

[14] = system: cultured human mast cells (CHMC); assay: CHMC high cell density IgE activation: LTC4; type: cell-based
Description: as §2

[15] = system: cultured human mast cells (CHMC); assay: CHMC high cell density IgE activation: TNFalpha; type: cell-based; details: read-out: CHMC high density TNF-alpha
Description: as §2

[16] = system: Jurkat cells; assay: Jurkat toxicity, Cell Titer Glo assay; type: cell-based, human
Description: Seed 50 μl cells (1×10^6/ml) into each well containing 50 μl compound. […] Shake plates for 1 minute to mix cells and compound. Incubate plates at 37° C. […] Next day, harvest 50 μl cells from each well, add to 50 μl Cell Titer Glo reagent ([…]). Shake plates for 1 minute. Read on luminometer.

[17] = Mouse Reverse Passive Arthus reaction (RPA reaction); type: in vivo, C57BL/6 mice; details: oral, 200 mg/kg
Method in brief: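 C57BL/6 mice dosed with compound before challenge, pretreatment time set by each compound's PK; rabbit anti-OVA IgG (50 μg/mouse) given intradermally, then ovalbumin 20 mg/kg i.v. with 1% Evans blue. Dorsal skin edema and hemorrhage read by dye extravasation at 4 h; purified polyclonal rabbit IgG as control.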

[18] = system: Primary human B-cells; assay: Primary B-cell activation (α-IgM, CD69 upregulation); type: cell-based; details: read-out: 1° B-Cell CD69 IC50
Description: Primary human B-cells were isolated from buffy coat, the white cell layer that forms between the red cells and the […] when anti-coagulated blood is centrifuged, or from fresh blood using CD19-Dynal® beads and a FACS. Buffy coat was obtained from the Stanford Medical School Blood Centre, prepared on the same day by the blood bank, stored and transported cold (with ice). The buffy coat (approx 35 mL) was placed in a 500 mL conical sterile centrifuge pot and cooled on ice, then diluted with cold PBS containing 0.2% BSA (Sigma: A7638) and sodium citrate (0.1%, Sigma: S-5570) (P—B—C) to a total volume of 200 mL and mixed gently. Fresh blood was collected from donors in 10 mL vacutainers containing heparin (1 vacutainer collects approximately 8.5 mL blood). The blood was cooled on ice, transferred into 50 mL falcon tubes (20 mL/tube) or a 500 mL conical sterile centrifuge pot, and diluted with an equal volume P—B—C.
25 mL diluted blood or buffy coat was layered onto 15 mL cold ficoll and placed back on ice. The ficoll layered blood was centrifuged (Beckman GS-6R) for 45 minutes at 2000 rpm, 4° C. to separate the Peripheral Blood Mononuclear Cells (PBMC) from the Red Blood Cells (RBC) and granulocytes. The top aqueous layer was then aspirated until 1 inch above the PBMC layer. The PBMCs were transferred from every 2 ficoll tubes into one clean 50 mL falcon tube (=approx 10 mL/tube). The transferred PBMCs were diluted 5× with icecold PBS with 0.2% BSA (P—B) and centrifuged for 20 min at 1400 rpm and 4° C. The supernatant (this may be cloudy) was then aspirated and the PBMCs resuspended into 25 mL P—B and the cells counted (using a 1:5 dilution) and kept on ice.
The cells were then positively selected using anti-CD 19 antibody coupled to magnetic beads (Dynal®) as per manufacturer's instructions. The approximate required amount of CD19-Dynal® beads (CD19-coated dyna beads M-450 (pabB), Dynal®) was calculated by estimating the number of B-cells as 5% of PBMCs counted and adding approximately10 beads per cell from the bead stock (4×10^8 beads/mL). The CD19-Dynal® beads were washed 2× in P—B in a 5 mL tube using the Dynal® magnet, then added into the suspended PBMCs. This mixture was then passed through the Dynal® magnet and washed several times to separate the bead-bound cells.
After separation, the beads and antibody were removed using Dynal® CD19-DETACHaBEAD® for 45 min at 30° C. Yield is typically 2×10^7 B-cells per buffy coat. B-cells were washed and resuspended as 1E6 cells/mL in RPMI1640+10% FBS+Penicillin/[…]+1 ng/mL IFNα8. Cells were rested overnight at 37° C. and 5% CO2.
The following day, cells were washed and resuspended in RPMI+2.5% FBS to 1×10^6 cells/mL. Cells were then aliquoted into a V-bottom 96-well plate (Corning) at 65 uL cells per well. By robot, 65 uL of a 2× compound was added to the cells with final concentration of DMSO at 0.2%, and incubated for 1 hr at 37° C. Cells were then stimulated with 20 uL 7.5× α-IgM from Jackson laboratories (final 5 ug/mL) for 24 hrs. At day 3, the cells were spun down and stained for CD69 and analyzed by FACS gated on the live cells (by light scatter).
Varied concentrations of compound were compared to solvent only to determine the inhibition of B-cell activation IC50 of each compound.

[19] = low cell density, read-out: CHMC anti-IgE Tryptase
[20] = low cell density, read-out: CHMC Ionomycin Tryptase

Row | Structure (SMILES) | IC50 [1, 19] | IC50 [2, 20] | IC50 [3] | IC50 [4] | IC50 [5] | IC50 [6] | IC50 [7] | IC50 [8] | IC50 [9] | also measured
1 | COc1ccc(Nc2ncc(F)c(Nc3ccc4c(c3)NC(=O)[C@@H](C)O4)n2)cc1Cl [Compound R909322] | 225 nM | > 10000 nM | 240 nM | 140 nM | 100 nM | 141 nM | 3030 nM | 1260 nM | 839 nM | –
2 | CNC(=O)c1cc2cc(Nc3ncc(F)c(Nc4cccc(O)c4)n3)ccc2o1 [Compound R926493] | – | – | – | – | – | – | 3520 nM | – | – | IC50 ([1]; Low Density CHMC, anti-IgE activation, tryptase release, read-out: CHMC anti-IgE Tryptase IC50): 250 nM; IC50 [10]: 78 nM; IC50 ([2]; Low Density CHMC, ionomycin activation, tryptase release, read-out: CHMC Ionomycin Tryptase IC50): 9180 nM; IC50 [11]: 889 nM; IC50 [12]: 1090 nM; IC50 [13]: 1320 nM; IC50 [14]: 474 nM; IC50 [15]: > 2000 nM; IC50 [16]: > 4330 nM
3 | CNC(=O)COc1cccc(Nc2ncc(F)c(Nc3ccc(OC)c(Cl)c3)n2)c1 [Compound R926891] | – | – | – | – | – | – | 1550 nM | 1140 nM | 942 nM | inhibition of edema formation ([17]; 60 minutes prior to challenge): 54.9%; % inhibition to vehicle control Edema Size ± SEM ([17]; pretreatment time 0.5 hrs): 44.8 ± 3.0%; % inhibition to vehicle control Edema Size ± SEM ([17]; pretreatment time 1 hrs): 46.2 ± 4.1% and 54.9%; % inhibition to vehicle control Edema Size ± SEM ([17]; pretreatment time 1.5 hrs): 28.1 ± 10.6%; IC50 [18]: 803 nM
4 | COc1ccc(Nc2nc(Nc3ccc4cc[nH]c4c3)ncc2F)cc1Cl [Compound R926976] | 305 nM | 8300 nM | 590 nM | 110 nM | 250 nM | 421 nM | – | 4370 nM | 7620 nM | –
